In US20160136295A1, “BIOMARKERS FOR TREATMENT WITH ANTI-TUBULIN CHEMOTHERAPEUTIC COMPOUNDS” (GENENTECH, INC., priority 2012, published 2016):
Square brackets hold non-standard residues; d marks the D form. Peptide text beside a SMILES is read from it. * marks the point of attachment. Dolaproine = CO[C@@H]([C@@H]1CCCN1)[C@@H](C)C(=O)O; Dil = CC[C@H](C)[C@H](NC)[C@@H](CC(=O)O)OC; X1 = C[C@@H](N*)[C@@H](O)c1ccccc1; NMeV = CN[C@H](C(=O)O)C(C)C

Key:
[1] = tested on: ovarian cancer cell lines; test: Cell viability of ovarian cancer cell lines by FBW7 status; type: cell-based, human; conditions: FBW7-wild-type ovarian cancer cell lines that undergo mitotic arrest, relative to FBW7-mutant cells
Method: (§1) The viability of cancer cell lines, and MEFs in which genes encoding IAPs had been knocked out, was analysed by using the CellTiter-Glo Luminescent Cell Viability Assay® (Promega). Cells were treated in triplicate with anti-tubulin agents for the indicated times, using dimethylsulphoxide treatment as a control. The viability of BCL2-family-member-null MEFs was analysed by propidium iodide staining, as described previously (Chen, L. et al. (2005) Molecular cell 17:393-403), after treatment with anti-tubulin agents for 48 h. Cell synchronization was achieved by culture either in serum-free medium for 12-16 h or in medium containing 2 mM thymidine for 18-24 h, release from the thymidine block with three washes in PBS, followed by culture for 8-12 h in complete growth media (compositions are described in the Supplementary Information). Cells then underwent a second thymidine block for 16-20 h, three further washes in PBS and release into complete medium containing the indicated reagents. To block MCL1 degradation, […] MG132 was added as cells entered mitotic arrest, as assessed by visual inspection. See the Examples for full methods.

[2] = tested on: murine embryonic fibroblasts (MEFs); test: Viability of BCL2-family-member-null MEFs by propidium iodide staining after anti-tubulin agents; type: cell-based; conditions: for killing (cell viability): treated 48 hours; for sensitivity to killing: 48 hours
Method: as §1

[3] = tested on: Mcl-1; test: Mcl-1 protein level / degradation in mitotic arrest (western blot of synchronized cells); type: cell-based, human; conditions: for maintenance of mitotic arrest (cdc27 phosphorylation) / Mcl-1 degradation in mitotic arrest: HeLa released into paclitaxel; for maintenance of mitotic arrest (cdc27 phosphorylation): CGP74514A 2 μM or roscovitine 2.5 μM; for Mcl-1 degradation in mitotic arrest: CGP74514A 2 μM, FR180204 2 μM, SP600125 25 μM, SB203580 2 μM added on entry into mitotic arrest
Method: as §1
(§2) Western blotting was performed essentially as described (Wertz, I. E. et al. (2004) Science (New York, N.Y 303:1371-1374). In brief, cells were lysed in corrected FLAG elution buffer (CFEB) (19.17 mM Tris (pH 7.5), 916.7 μM MgCl2, 92.5 mM NaCl and 0.1% Triton X-100) with protease and phosphatase inhibitors; in some cases 6 M urea was added. Cleared lysates were quantitated and equal amounts of proteins were reduced, alkylated, separated by SDS-PAGE, and transferred onto PVDF membranes (Invitrogen) following standard procedures. Western blotting was performed as recommended by the respective antibody manufacturers. Patient tissue and xenograft samples were lysed in 5× volume of CFEB with protease inhibitors using Fast prep 24 (MP Biologicals). Tissue lysates were cleared and 40 μg total protein was prepared for western blotting analysis as described above. Immunoprecipitations were performed with the indicated antibodies as described (Willis, S. N. et al. (2007) Science (New York, N.Y 315:856-859; Wertz, I. E. et al. (2004) Science (New York, N.Y 303:1371-1374). PP2A activity was performed on PP2A or Mcl-1 immunoprecipitates as recommended by the manufacturer (Upstate)

[4] = tested on: TOV112D-X1 ovarian tumors; test: Ovarian tumor xenografts in vivo; parameters: species or system athymic nu/nu mice; conditions: tumors expressing FBW7-R505L vs FBW7-wild-type; 20 mg/kg intravenous, days 21 and 23 post implant
Method: Wild-type FBW7 TOV112D-X1 ovarian cancer cells expressing either an empty vector (vector) or the R505L point mutant (FBW7-R505L) were resuspended in Matrigel® (BD Biosciences) at a density of 1×10^8 cells/mL, and […] Matrigel® grafts containing 1×10^6 cancer cells were implanted under the kidney capsule of 8-week-old athymic nu/nu mice (Harlan Sprague Dawley). Only one graft was implanted per mouse. Once tumors became palpable on the kidney surface, tumor growth was assessed three times per week via caliper measurements of the entire kidney volume (0.523×length×width×height). On day 21 post-implant, when tumors reached an average volume of 700 mm^3, paclitaxel (APP Pharmaceuticals) was administered to both FBW7-WT and FBW7-R505L tumor groups via intravenous tail vein injection at 20 mg/kg in 5% dextrose water. Paclitaxel administration was repeated on day 23 post-implant. Statistical differences were evaluated using a two-tailed Student's t-test. P values of less than 0.05 were considered significant.

[5] = tested on: HCT116 cells; test: Live time-lapse imaging of mitotic fate; type: cell-based, human
Method: HCT116 parental or FBW7−/− cells expressing shLacZ or shMcl-1 were plated at 15,000-30,000 cells per well in 96-well μ-plates (ibidi GmbH) and infected with GFP-H2B baculovirus (Invitrogen) 24 hours prior to adding paclitaxel or vincristine. Cells were imaged live at 37° C. with 5% CO2 using a Nikon TiE® microscope with a Cool Snap® CCD camera (Roper Scientific) and a Plan Apo VC 20× 0.75 NA objective. Three images with 6 μm z-steps were acquired for each position every 10 minutes for 43 hours. Mitotic fate was analyzed manually using NIS-Elements software (Nikon) and numerical data was complied and statistically analyzed using Excel (Microsoft). Fifty mitotic cells were analyzed for each condition and p-values were calculated for the change in the number of cells that exited mitosis or entered apoptosis using the one-tailed Fisher's exact test.

[6] = tested on: MEFs in which genes encoding IAPs had been knocked out; test: Cell viability of MEF cell lines deficient in IAP genes (CellTiter-Glo); type: cell-based, murine; conditions: IAP-deficient MEFs plus siRNA, 48 hours
Method: as §1

[7] = tested on: FBW7-WT, FBW7−/− or FBW7 mutant colon cancer cell lines (HCT116, DLD1); test: Cell viability of colon cancer cell lines by FBW7 status (CellTiter-Glo); type: cell-based, human; conditions: 48 hours
Method: as §1
were synthesized by Ambion and experiments were performed as described (Huang, H. C., et al (2009) Cancer cell 16:347-358). For viability experiments using stable cell lines transfected with doxycycline-inducible shRNAs to LacZ or Mcl-1 ORF, cells were plated in 10 cm2 plates with 0.2 μg/mL doxycycline for two days. On the third day, cells were plated in to 96-well plates at 5×10^3 per well for viability assays as described above. […] For western blot analysis, cells were harvested at indicated time points and processed as described above.

[8] = tested on: ovarian cancer cell lines; test: Mitotic arrest in asynchronous ovarian cancer cell lines (western blot, phospho-histone H3 ELISA); type: cell-based, human; conditions: unsynchronized cell lines, 200 nM paclitaxel
Method: The unsynchronized cell lines (with FBW7 status specified in parentheses) were treated with 200 nM paclitaxel and were subsequently collected at the indicated time points for western blot and phospho-histone H3 ELISA analysis.

[9] = tested on: myc-Mcl-1 / FLAG-FBW7; test: Recruitment of myc-Mcl-1 to FLAG-FBW7 in mitotic arrest (immunoprecipitation, HeLa cells); type: cell-based, human; conditions: HeLa released into paclitaxel; agent 1 hour then 3 hour 25 μM MG-132; SP600125 25 μM, SB203580 2.65 μM, CGP74514A, roscovitine 2.5 μM
Method: The indicated constructs were expressed in HeLa cells with or without scramble or cdc20 RNAi, and then synchronized and released into paclitaxel. […] Cells were subsequently collected and processed as indicated.
as §2

[10] = tested on: Granta-519, HCT-116 and HeLa cells; test: Mitotic arrest and Mcl-1 degradation with MMAE (FIG. 5); type: cell-based

Structure (SMILES): CC(=O)O[C@H]1C(=O)[C@@]2(C)[C@H]([C@H](OC(=O)c3ccccc3)[C@]3(O)CC(OC(=O)[C@H](O)[C@@H](NC(=O)c4ccccc4)c4ccccc4)C(C)=C1C3(C)C)[C@]1(OC(C)=O)CO[C@@H]1C[C@@H]2O (relative stereo) [paclitaxel, β-(benzoylamino)-α-hydroxy-,6,12b-bis(acetyloxy)-12-(benzoyloxy)-2a,3,4,4a,5,6,9,10,11,12,12a,12b-dodecahydro-4,11-dihydroxy-4a,8,13,13-tetramethyl-5-oxo-7,11-methano-1H-cyclodeca(3,4)benz(1,2-b) oxet-9-ylester,(2aR-(2a-α,4-β,4a-β,6-β,9-α(α-R*,β-S*),11-α,12-α,12α-α,2b-α))-benzenepropanoic acid]
- sensitivity (cell viability) [1]: sensitive
- killing (cell viability) ([2]; BAX−/−/BAK−/− MEFs): resistant
- sensitivity to killing ([2]; BCL-X−/− MEFs vs wild-type): more sensitive than wild-type cells
- sensitivity to killing ([2]; MCL-1−/− MEFs vs wild-type): enhanced sensitivity
- killing (cell viability) ([2]; wild-type MEFs): significantly more sensitive
- Mcl-1 protein level in mitotic arrest ([3]; synchronized cells (HeLa) released into the agent): declined markedly
- tumor resistance (tumor volume growth curves) [4]: more resistant
- drug-induced apoptosis upon decreasing Mcl-1 protein levels ([5]; FBW7-null cells with Mcl-1 shRNA vs control shRNA): enhanced
- exit from drug-induced mitotic arrest (mitotic slippage) ([5]; FBW7-null vs FBW7-wild-type cells): more readily
- cell sensitivity upon ablation of IAP family proteins [6]: does not enhance cell sensitivity
- sensitivity to drug-induced death upon reducing Mcl-1 protein ([7]; FBW7-null HCT116 cells, doxycycline-inducible Mcl-1 shRNA): restored their sensitivity
- resistance to drug-induced cell death ([7]; FBW7-null cell lines relative to wild-type cells): more resistant
- resistance to drug-induced cell death ([7]; FBW7−/− or FBW7 mutant colon cancer cell lines relative to FBW7-WT): more resistant
- mitotic arrest [8]: arrested in mitosis

Structure (SMILES): CCn1cnc2c(Nc3cccc(Cl)c3)nc(N[C@@H]3CCCC[C@@H]3N)nc21 [CGP74514A]
- maintenance of mitotic arrest (cdc27 phosphorylation) [3]: drives cells out of mitotic arrest
- Mcl-1 degradation in mitotic arrest [3]: attenuate Mcl-1 degradation
- recruitment of myc-Mcl-1 to FLAG-FBW7 in mitotic arrest [9]: attenuates recruitment of myc-Mcl-1 to FLAG-FBW7

Structure (SMILES): CC[C@H](C)[C@@H]([C@@H](CC(=O)N1CCC[C@H]1[C@H](OC)[C@@H](C)C(=O)N[C@H](C)[C@@H](O)c1ccccc1)OC)N(C)C(=O)[C@@H](NC(=O)[C@@H](NC)C(C)C)C(C)C [MMAE, (S)—N-((3R,4S,5S)-1-((S)-2-((1R,2R)-3-(((1S,2R)-1-hydroxy-1-phenylpropan-2-yl)amino)-1-methoxy-2-methyl-3-oxopropyl)pyrrolidin-1-yl)-3-methoxy-5-methyl-1-oxoheptan-4-yl)-N,3-dimethyl-2-((S)-3-methyl-2-(methylamino)butanamido)butanamide] (H-[NMeV]V[Dil][Dolaproine]-X1)
- mitotic arrest (phospho-cdc27) [10]: promotes mitotic arrest
- Mcl-1 degradation ([10]; subsequent to mitotic arrest): Mcl-1 degradation

Structure (SMILES): C[S+]([O-])c1ccc(-c2nc(-c3ccncc3)c(-c3ccc(F)cc3)[nH]2)cc1 (centres unmarked) [SB203580]
- Mcl-1 degradation in mitotic arrest [3]: attenuate Mcl-1 degradation
- recruitment of myc-Mcl-1 to FLAG-FBW7 in mitotic arrest [9]: attenuates recruitment of myc-Mcl-1 to FLAG-FBW7

Structure (SMILES): CC[C@H](CO)Nc1nc(NCc2ccccc2)c2ncn(C(C)C)c2n1 [roscovitine]
- maintenance of mitotic arrest (cdc27 phosphorylation) [3]: drives cells out of mitotic arrest
- recruitment of myc-Mcl-1 to FLAG-FBW7 in mitotic arrest [9]: attenuates recruitment of myc-Mcl-1 to FLAG-FBW7
